Results: PubChem BioAssay (NCI)
Several values for one entry are separate records, joined by “and”; a condition that tells them apart may be missing. Equal values may be shown once.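 Dose response: 5 concentrations. Exposure: 48 h. Format: 96-well plates. Endpoint: linear interpolation; highest concentration if not reached. Abbreviation: GI50, concentration required for 50% inhibition of growth. TGI is the concentration that stops growth completely.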

Assays:
Test in all cases: growth of human tumour cells (NCI), 48 h
ACHN renal = system: ACHN renal
TK-10 renal = system: TK-10 renal
PC-3 prostate = system: PC-3 prostate
HCC-2998 colon = system: HCC-2998 colon
MDA-N = system: MDA-N
CAKI-1 renal = system: CAKI-1 renal
MOLT-4 leukemia = system: MOLT-4 leukemia
UACC-257 melanoma = system: UACC-257 melanoma
OVCAR-8 ovarian = system: OVCAR-8 ovarian
HCT-15 colon = system: HCT-15 colon
SNB-19 CNS = system: SNB-19 CNS
M14 melanoma = system: M14 melanoma
SK-MEL-2 melanoma = system: SK-MEL-2 melanoma
OVCAR-4 ovarian = system: OVCAR-4 ovarian
LOX IMVI melanoma = system: LOX IMVI melanoma
A498 renal = system: A498 renal
BT-549 breast = system: BT-549 breast
UO-31 renal = system: UO-31 renal
NCI-H460 lung = system: NCI-H460 lung
786-0 renal = system: 786-0 renal
NCI-H226 lung = system: NCI-H226 lung
SK-MEL-5 melanoma = system: SK-MEL-5 melanoma
MCF7 breast = system: MCF7 breast
SN12C renal = system: SN12C renal
K-562 leukemia = system: K-562 leukemia
CCRF-CEM leukemia = system: CCRF-CEM leukemia
MALME-3M melanoma = system: MALME-3M melanoma
SW-620 colon = system: SW-620 colon
MDA-MB-435 = system: MDA-MB-435
SK-MEL-28 melanoma = system: SK-MEL-28 melanoma
UACC-62 melanoma = system: UACC-62 melanoma
SNB-75 CNS = system: SNB-75 CNS
T-47D breast = system: T-47D breast
SF-268 CNS = system: SF-268 CNS
RPMI-8226 leukemia = system: RPMI-8226 leukemia
IGROV1 ovarian = system: IGROV1 ovarian
MDA-MB-231 breast = system: MDA-MB-231 breast
HCT-116 colon = system: HCT-116 colon
A549 NSCLC = system: A549 NSCLC
NCI-H522 lung = system: NCI-H522 lung
DU-145 prostate = system: DU-145 prostate
OVCAR-5 ovarian = system: OVCAR-5 ovarian
OVCAR-3 ovarian = system: OVCAR-3 ovarian
U251 CNS = system: U251 CNS
SR leukemia = system: SR leukemia
NCI-H23 lung = system: NCI-H23 lung
HL-60(TB) leukemia = system: HL-60(TB) leukemia
HT29 colon = system: HT29 colon
HOP-62 NSCLC = system: HOP-62 NSCLC
SF-539 CNS = system: SF-539 CNS
EKVX NSCLC = system: EKVX NSCLC
SK-OV-3 ovarian = system: SK-OV-3 ovarian
HOP-92 NSCLC = system: HOP-92 NSCLC
RXF 393 renal = system: RXF 393 renal
COLO 205 colon = system: COLO 205 colon
KM12 colon = system: KM12 colon
SF-295 CNS = system: SF-295 CNS
NCI/ADR-RES ovarian = system: NCI/ADR-RES ovarian

## Cc1ccc(C(=O)Nc2ccc(S(=O)(=O)O)c3cc(S(=O)(=O)O)cc(S(=O)(=O)O)c23)cc1NC(=O)Nc1cc(C(=O)Nc2ccc(S(=O)(=O)O)c3cc(S(=O)(=O)O)cc(S(=O)(=O)O)c23)ccc1C
ACHN renal
  TGI: > 87.5 µM
TK-10 renal
  TGI: > 87.5 µM
PC-3 prostate
  TGI: > 87.5 µM
HCC-2998 colon
  TGI: > 87.5 µM
MDA-N
  TGI: > 87.5 µM
CAKI-1 renal
  TGI: > 87.5 µM
MOLT-4 leukemia
  TGI: > 87.5 µM
UACC-257 melanoma
  TGI: > 87.5 µM
OVCAR-8 ovarian
  TGI: > 87.5 µM
HCT-15 colon
  TGI: > 87.5 µM
SNB-19 CNS
  TGI: > 87.5 µM
M14 melanoma
  TGI: > 87.5 µM
SK-MEL-2 melanoma
  TGI: > 87.5 µM
OVCAR-4 ovarian
  TGI: > 87.5 µM
LOX IMVI melanoma
  TGI: > 87.5 µM
A498 renal
  TGI: > 87.5 µM
BT-549 breast
  TGI: > 87.5 µM
UO-31 renal
  TGI: > 87.5 µM
NCI-H460 lung
  TGI: > 87.5 µM
786-0 renal
  TGI: > 87.5 µM
NCI-H226 lung
  TGI: > 87.5 µM
SK-MEL-5 melanoma
  TGI: > 87.5 µM
MCF7 breast
  TGI: > 87.5 µM
SN12C renal
  TGI: > 87.5 µM
K-562 leukemia
  TGI: > 87.5 µM
CCRF-CEM leukemia
  TGI: > 87.5 µM
MALME-3M melanoma
  TGI: > 87.5 µM
SW-620 colon
  TGI: > 87.5 µM
MDA-MB-435
  TGI: > 87.5 µM
SK-MEL-28 melanoma
  TGI: > 87.5 µM
UACC-62 melanoma
  TGI: > 87.5 µM
SNB-75 CNS
  TGI: > 87.5 µM
T-47D breast
  TGI: > 87.5 µM
SF-268 CNS
  TGI: > 87.5 µM
RPMI-8226 leukemia
  TGI: > 87.5 µM
IGROV1 ovarian
  TGI: > 87.5 µM
MDA-MB-231 breast
  TGI: > 87.5 µM
HCT-116 colon
  TGI: > 87.5 µM
A549 NSCLC
  TGI: > 87.5 µM
NCI-H522 lung
  TGI: > 87.5 µM
DU-145 prostate
  TGI: > 87.5 µM
OVCAR-5 ovarian
  TGI: > 87.5 µM
OVCAR-3 ovarian
  TGI: > 87.5 µM
U251 CNS
  TGI: > 87.5 µM
SR leukemia
  TGI: > 87.5 µM
NCI-H23 lung
  TGI: > 87.5 µM
HL-60(TB) leukemia
  TGI: > 87.5 µM
HT29 colon
  TGI: > 87.5 µM
HOP-62 NSCLC
  TGI: > 87.5 µM

## C=C(C(=O)OC)[C@H]1CC/C(C)=C/CC[C@@](C)(O)C=CC[C@@]2(C)O[C@@H]2C1
ACHN renal
  TGI: > 100 µM
TK-10 renal
  TGI: > 100 µM
PC-3 prostate
  TGI: > 100 µM
HCC-2998 colon
  TGI: > 100 µM
MDA-N
  TGI: > 100 µM
CAKI-1 renal
  TGI: 50.2 µM
MOLT-4 leukemia
  TGI: 31.9 µM
UACC-257 melanoma
  TGI: > 100 µM
OVCAR-8 ovarian
  TGI: 27 µM
HCT-15 colon
  TGI: 73.6 µM
SNB-19 CNS
  TGI: > 100 µM
M14 melanoma
  TGI: > 100 µM
SK-MEL-2 melanoma
  TGI: > 100 µM
OVCAR-4 ovarian
  TGI: > 100 µM
A498 renal
  TGI: 87.2 µM
BT-549 breast
  TGI: > 100 µM
SF-539 CNS
  TGI: 56.9 µM
UO-31 renal
  TGI: 52.3 µM
EKVX NSCLC
  TGI: > 100 µM
NCI-H460 lung
  TGI: > 100 µM
786-0 renal
  TGI: 34.8 µM
SK-OV-3 ovarian
  TGI: > 100 µM
HOP-92 NSCLC
  TGI: 70.2 µM
NCI-H226 lung
  TGI: > 100 µM
SK-MEL-5 melanoma
  TGI: 20.1 µM
RXF 393 renal
  TGI: > 100 µM
MCF7 breast
  TGI: > 100 µM
SN12C renal
  TGI: > 100 µM
COLO 205 colon
  TGI: 31 µM
SW-620 colon
  TGI: > 100 µM
MDA-MB-435
  TGI: 46.1 µM
KM12 colon
  TGI: > 100 µM
SK-MEL-28 melanoma
  TGI: 41 µM
UACC-62 melanoma
  TGI: > 100 µM
SNB-75 CNS
  TGI: > 100 µM
T-47D breast
  TGI: > 100 µM
SF-268 CNS
  TGI: > 100 µM
RPMI-8226 leukemia
  TGI: 41.5 µM
IGROV1 ovarian
  TGI: > 100 µM
MDA-MB-231 breast
  TGI: > 100 µM
HCT-116 colon
  TGI: 36.6 µM
A549 NSCLC
  TGI: > 100 µM
DU-145 prostate
  TGI: 84.1 µM
OVCAR-5 ovarian
  TGI: > 100 µM
SF-295 CNS
  TGI: > 100 µM
OVCAR-3 ovarian
  TGI: 42.4 µM
U251 CNS
  TGI: > 100 µM
NCI/ADR-RES ovarian
  TGI: 78.6 µM
SR leukemia
  TGI: 33.8 µM
NCI-H23 lung
  TGI: 61 µM
HT29 colon
  TGI: 28.5 µM
HOP-62 NSCLC
  TGI: > 100 µM

## CCNC(=O)CCC(C)[C@H]1CCC2C3C(C[C@H](OC(C)=O)[C@@]21C)[C@@]1(C)CCC2(C[C@H]1C[C@H]3OC(C)=O)OOC1(CCC(C)CC1)OO2 (some centres not stated)
ACHN renal
  TGI: 4.65 µM and 3.13 µM
TK-10 renal
  TGI: 6.74 µM and 5.13 µM
PC-3 prostate
  GI50: 0.716 µM and 2.06 µM
  TGI: > 100 µM and 11.4 µM
HCC-2998 colon
  TGI: 7.3 µM and 3.87 µM
MDA-N
  TGI: 10.3 µM and 3.92 µM
CAKI-1 renal
  TGI: 3.93 µM and 2.24 µM
MOLT-4 leukemia
  GI50: 0.658 µM and 1.72 µM
  TGI: 2.66 µM and 5.47 µM
UACC-257 melanoma
  TGI: > 100 µM and 96.3 µM
HCT-15 colon
  TGI: 20.4 µM and 4.62 µM
SNB-19 CNS
  TGI: > 100 µM and 24.4 µM
M14 melanoma
  TGI: 43 µM and 5.24 µM
SK-MEL-2 melanoma
  TGI: 3.91 µM and 3.21 µM
OVCAR-4 ovarian
  TGI: 4.09 µM and 3.17 µM
LOX IMVI melanoma
  TGI: 6.29 µM and 4.61 µM
A498 renal
  GI50: > 100 µM and 25.6 µM
  TGI: > 100 µM
BT-549 breast
  TGI: 5.94 µM and 3.2 µM
SF-539 CNS
  TGI: 7.44 µM and 3.7 µM
UO-31 renal
  TGI: 2.38 µM and 2.71 µM
EKVX NSCLC
  TGI: 2.69 µM
786-0 renal
  TGI: 7.66 µM and 3.44 µM
HOP-92 NSCLC
  TGI: 7.31 µM and 3.38 µM
NCI-H226 lung
  TGI: 9.4 µM and 3.85 µM
SK-MEL-5 melanoma
  TGI: 4.43 µM and 3.09 µM
RXF 393 renal
  GI50: 9.58 µM and 3.18 µM
  TGI: > 100 µM and 16.5 µM
MCF7 breast
  TGI: > 100 µM
K-562 leukemia
  TGI: > 100 µM
COLO 205 colon
  TGI: 3.18 µM and 3.2 µM
CCRF-CEM leukemia
  TGI: 3.2 µM and 3.94 µM
MALME-3M melanoma
  TGI: 6.1 µM and 3.92 µM
MDA-MB-435
  TGI: 5.22 µM and 3.44 µM
KM12 colon
  TGI: 4.3 µM and 3.25 µM
SK-MEL-28 melanoma
  TGI: > 100 µM and 17.4 µM
UACC-62 melanoma
  TGI: 10.8 µM and 6.15 µM
SNB-75 CNS
  TGI: 5.89 µM and 5.67 µM
T-47D breast
  TGI: 5.18 µM and 3.84 µM
SF-268 CNS
  GI50: 4.22 µM and 1.59 µM
RPMI-8226 leukemia
  GI50: 0.574 µM and 1.39 µM
  TGI: 2.64 µM and 3.81 µM
IGROV1 ovarian
  TGI: 3.66 µM and 2.87 µM
MDA-MB-231 breast
  TGI: 6.13 µM
HCT-116 colon
  TGI: 6.01 µM and 4.28 µM
A549 NSCLC
  TGI: 8.28 µM and 4.02 µM
NCI-H522 lung
  TGI: 3.7 µM and 3.07 µM
DU-145 prostate
  TGI: 3.22 µM and 6.19 µM
OVCAR-5 ovarian
  TGI: > 100 µM
OVCAR-3 ovarian
  TGI: 3.62 µM
U251 CNS
  TGI: 7.32 µM and 3.23 µM
SR leukemia
  TGI: 3.32 µM
NCI-H23 lung
  TGI: 9.01 µM and 5.24 µM
HL-60(TB) leukemia
  TGI: 3.74 µM and 4.85 µM
HT29 colon
  GI50: 1.19 µM and 3.04 µM
HOP-62 NSCLC
  TGI: 3.56 µM and 2.09 µM
